Like-named read-outs stand apart in the source and are kept apart here.
How the values were obtained:
Botrytis cinerea = assay: Inhibition of spore germination, Eppendorf tube assay (Examples I and II); type: cell-based; conditions: for inhibition at 0.5 µg/mL: read-out: % inhibition; for % inhibition: enzyme 0 μg ml^−1 (fungicide alone); for % inhibition / Ee, expected effect from an additive response according to Limpel's formula, percent inhibition / Io, percent inhibition observed: flusilazole 5 ng ml^−1, miconazole 0.5 μg ml^−1; for ED50 of fungicide (dose effective for 50% inhibition): Table 9
[1] = test system: Fusarium oxysporum strain FOP1; assay: Inhibition of spore germination, ELISA plate assay (Examples V-XIV, XVII); type: cell-based; conditions: Table 28; concentration of flusilazole for 50% inhibition, alone or with enzyme at its ED10 concentration
Method: (§1) The concentration where fungal cell wall degrading enzyme individually provides a specified percentage fungal inhibition or where antifungal fungal cell membrane affecting compound individually provides a specific percentage fungal inhibition can be determined as follows: Assays are performed under sterile conditions. Equal volumes of spore suspensions, 3× potato dextrose broth, and the test solution or suspension in 5 mM Tris-HCl (pH 6.0) or 5 mM potassium phosphate buffer (pH 6.7) are mixed. The control is the same as the test solution except for the control the antifungal agent is omitted. The assay mixtures (total volume 45 or 30 μl) are incubated on flat-bottomed ELISA plates, each containing 96 wells, with 2,000 to 3,000 spores per well, at 25° C. After 22 to 30 hours, the plates are placed under an inverted microscope. The percentage of conidia germinating is determined as the percentage of the first 100 spores randomly found in a well. In addition, the lengths of 20 germ tubes are measured and averaged. All experiments are performed twice, with three replicates for each treatment. The inhibition values obtained in the two experiments are combined and averaged, and standard deviations are calculated from the 6 data points. The values obtained for the control are taken as 0% inhibition and all other values are divided by the values obtained for the control and multiplied by 100% to obtain percent inhibition. Determination of concentration corresponding to a particular percent inhibition is carried out by subjecting dose-response curves to regression analysis by using a binomial regression of the third order, with R^2 ranging between 0.95 and 0.99.
(§2) Assays were carried out by the procedure described in the summary of the invention section. Dose response curves were obtained by probit analysis of data collected from two separate experiments with each experiment involving three treatment replicates.
(§3) Dose response curves were determined for each antifungal fungal cell membrane affecting compound and for each fungal cell wall degrading enzyme singly. Then each fungal cell wall degrading enzyme at a concentration giving 10% inhibition when used alone was combined with increasing amounts of antifungal fungal cell membrane affecting compound. Then the concentration of antifungal fungal cell membrane affecting compound causing the ED50 for each combination was calculated by probit analysis of data collected from two experiments with three treatment replicates for each experiment. Assays for inhibition of spore germination were carried out as described in the summary of invention section above.
The relative level of synergism (RS below) for each combination was calculated by applying Limpel's formula: Ee=X+Y−(XY/100) as described in Richer, D. L, Pestic. Sci. 19, 309-315, 1987. In Limpel's formula, X and Y are the percentages of inhibition relative to each compound used alone and Ee is the expected effect for an additional (non-synergistic) effect. If the combination of the two agents produces an observed effect (Eo) greater than Ee, synergism exists, and as the difference between Eo and Ee increases, the level of synergism is greater. In this experiment, the X value (percentage inhibition by fungal cell wall degrading enzyme when used alone was chosen to be 10 (10% inhibition of spore germination when used alone) and the observed effect, Eo, was 50 (i.e., 50% inhibition of spore germination). The Y values were obtained from the determined concentrations of antifungal cell membrane affecting compound causing the ED50 for a combination and the dose response curves for the antifungal cell membrane affecting compound used alone—i.e., the Y value was the percent inhibition for the antifungal fungal cell membrane affecting compound when used alone for the concentration of antifungal fungal cell membrane affecting compound that was determined to cause the ED50 for the combination. Ee values were then calculated from Limpel's formula. […]

[2] = Solubility, guidance for forming solutions
Description: Compositions for use in the systems herein are readily formulated by admixing the fungal cell wall degrading enzymes and the antifungal fungal cell membrane affecting compounds with non-toxic carriers appropriate for the particular use for a composition, e.g., agriculturally acceptable carriers for agricultural uses and pharmaceutically acceptable carriers for medicinal uses. They may be formulated as liquids (solutions or suspensions) or as solids. Since the fungal cell wall degrading enzymes need free water for activity, water must be present at the time of function. […] Water is a preferred vehicle where components are soluble in it. […] Organic solvents can also be used and may be required in some cases if a solution is desired. Guidance for forming solutions follows. […] Suspension can also be employed.

B. cinerea strain 12 = assay: Inhibition of spore germination, ELISA plate assay (Examples III-XVI, XVIII); type: cell-based, Botrytis cinerea; conditions: Table 20; concentration of flusilazole for 50% inhibition, alone or with enzyme at its ED10 concentration
Method: as §1, §2
Each of 8 antifungal fungal cell membrane affecting compounds were used in combination with each of 8 or 6 fungal cell wall degrading enzymes to provide 50% inhibition (ED50) of B. cinerea strain 12 spore germination. Each fungal cell wall degrading enzyme was used at a concentration giving 10% inhibition of spore germination when used alone in combination with an amount of antifungal fungal cell membrane affecting compound so the combination gave 50% inhibition of spore germination.
as §3
The relative level of synergism (RS below) for each combination was calculated by applying Limpel's formula: Ee=X+Y−(XY/100) as described in Richer, D. L, Pestic. Sci. 19, 309-315, 1987. In Limpel's formula, X and Y are the percentages of inhibition relative to each compound used alone and Ee is the expected effect for an additional (non-synergistic) effect. If the combination of the two agents produces an observed effect (Eo) greater than Ee, synergism exists, and as the difference between Eo and Ee increases, the level of synergism is greater. […]

Question: With `C[Si](Cn1cncn1)(c1ccc(F)cc1)c1ccc(F)cc1` [Flusilazole, flusilazole] as the compound, how does the inhibition at 5 ng/mL (Botrytis cinerea; Botrytis cinerea, Table 5, endochitinase from G. virens strain 41 at 25 μg ml^−1, with flusilazole 5 ng ml^−1, miconazole 0.5 μg ml^−1 or none (enzyme alone)) read?
Answer: 89%

Question: And the inhibition at 0.5 µg/mL (Botrytis cinerea; Table 4, endochitinase from T. harzianum strain P1 at 75 μg ml^−1, with flusilazole 5 ng ml^−1, miconazole 0.5 μg ml^−1 or none (enzyme alone))?
Answer: 100%

Question: What about the “% inhibition” value (Botrytis cinerea; Table 4) of the same compound?
Answer: 18%

Question: And the “% inhibition” value (Botrytis cinerea; Table 5)?
Answer: 18%

Question: And the inhibition at 0.5 µg/mL (Botrytis cinerea; Table 6, chitobiosidase from T. harzianum strain P1 at 75 μg ml^−1, with flusilazole 5 ng ml^−1, miconazole 0.5 μg ml^−1 or none (enzyme alone))?
Answer: 100%

Question: And the “% inhibition” value (Botrytis cinerea; Table 6)?
Answer: 18%

Question: What about the “% inhibition” value (Botrytis cinerea; Table 7) of the same compound?
Answer: 18%

Question: What about the inhibition at 0.5 µg/mL (Botrytis cinerea; Table 7, glucan 1,3-β-glucosidase from T. harzianum strain P1 at 100 μg ml^−1, with flusilazole 5 ng ml^−1, miconazole 0.5 μg ml^−1 or none (enzyme alone)) of the same compound?
Answer: 100%

Question: And the “ED50 of fungicide (dose effective for 50% inhibition)” value (Botrytis cinerea; no endochitinase (0 μg ml^−1))?
Answer: 60 ng/mL

Question: And the “ED50 of fungicide (dose effective for 50% inhibition)” value (Botrytis cinerea; with endochitinase from T. harzianum strain P1 at 10 μg ml^−1)?
Answer: 0.7 ng/mL

Question: And the “ED50 of fungicide (dose effective for 50% inhibition)” value (Botrytis cinerea; with endochitinase from T. harzianum strain P1 at 25 μg ml^−1)?
Answer: 0.3 ng/mL

Question: And the ED50 of fungicide (Botrytis cinerea; Table 10, no chitobiosidase (0 μg ml^−1))?
Answer: 60 ng/mL

Question: What about the ED50 of fungicide (Botrytis cinerea; Table 10, with chitobiosidase from T. harzianum strain P1 at 25 μg ml^−1) of the same compound?
Answer: 1 ng/mL

Question: What about the ED50 of fungicide (Botrytis cinerea; Table 10, with chitobiosidase from T. harzianum strain P1 at 50 μg ml^−1) of the same compound?
Answer: 0.4 ng/mL

Question: What about the ED50 of fungicide (Botrytis cinerea; Table 10, with chitobiosidase from T. harzianum strain P1 at 75 μg ml^−1) of the same compound?
Answer: 0.35 ng/mL

Question: What about the ED50 of fungicide (Botrytis cinerea; Table 10, with chitobiosidase from T. harzianum strain P1 at 100 μg ml^−1) of the same compound?
Answer: 0.3 ng/mL

Question: And the ED50 of fungicide (Botrytis cinerea; Table 11, no glucosidase (0 μg ml^−1))?
Answer: 60 ng/mL

Question: And the ED50 of fungicide (Botrytis cinerea; Table 11, with glucan 1,3-β-glucosidase from T. harzianum strain P1 at 25 μg ml^−1)?
Answer: 3.3 ng/mL

Question: And the ED50 of fungicide (Botrytis cinerea; Table 11, with glucan 1,3-β-glucosidase from T. harzianum strain P1 at 50 μg ml^−1)?
Answer: 1 ng/mL

Question: And the ED50 of fungicide (Botrytis cinerea; Table 11, with glucan 1,3-β-glucosidase from T. harzianum strain P1 at 75 μg ml^−1)?
Answer: 0.17 ng/mL

Question: And the ED50 of fungicide (Botrytis cinerea; Table 12, no endochitinase (0 μg ml^−1))?
Answer: 60 ng/mL

Question: What about the ED50 of fungicide (Botrytis cinerea; Table 12, with endochitinase from G. virens strain 41 at 25 μg ml^−1) of the same compound?
Answer: 2.5 ng/mL

Question: And the ED50 of fungicide (Botrytis cinerea; Table 12, with endochitinase from G. virens strain 41 at 50 μg ml^−1)?
Answer: 1 ng/mL

Question: And the ED50 of fungicide (Botrytis cinerea; Table 12, with endochitinase from G. virens strain 41 at 75 μg ml^−1)?
Answer: 4.5 ng/mL

Question: What about the ED50 of fungicide (Botrytis cinerea; Table 12, with endochitinase from G. virens strain 41 at 100 μg ml^−1) of the same compound?
Answer: 0.22 ng/mL

Question: And the “Ee, expected effect from an additive response according to Limpel's formula, percent inhibition” value (“Ee, expected effect … percent inhibition” for short) (Botrytis cinerea; with Chitob. (P1) 25 μg ml^−1)?
Answer: 27%

Question: What about the “Io, percent inhibition observed” value (Botrytis cinerea; with Endoc. (41) 25 pg ml^−1 (so in the source)) of the same compound?
Answer: 67%

Question: And the “Ee, expected effect … percent inhibition” value (Botrytis cinerea; with Endoc. (P1) 25 μg ml^−1)?
Answer: 41%

Question: What about the “Ee, expected effect … percent inhibition” value (Botrytis cinerea; with Glucan. (P1) 25 μg ml^−1) of the same compound?
Answer: 22.1%

Question: What about the “Io, percent inhibition observed” value (Botrytis cinerea; with Glucan. (P1) 25 μg ml^−1) of the same compound?
Answer: 65%

Question: And the ED50 [1]?
Answer: 59.0 (51-65) ng ml^−1

Question: And the “solubility (solvent in which the substance dissolves)” value [2]?
Answer: dissolve in acetone

Question: What about the ED50 (B. cinerea strain 12) of the same compound?
Answer: 68 (61-85) ng ml^−1

Reference: US6512166B1, “Combinations of fungal cell wall degrading enzyme and fungal cell membrane affecting compound” (priority 1991, dated 2003)
